Reference: PubChem BioAssay AID1963979 (Molecular Pharmacology Branch, DTP, NCI, 2024)

System: 361931-004-R-J1-PDC multicell spheroid viability
Assay: Anticancer human tumor 361931-004-R-J1-PDC patient-derived colon adenocarcinoma cell line growth inhibition [PI3K]
Details: for IC50: curve of first compound; for viability, T/C: stronger effect = lower value; active = viability on the fitted dose curve at most 10% of control; inactive = the rest
Procedure, shortened: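 Stroma-containing spheroids: tumor line, pooled-donor HUVEC, hMSC. Treatments: targeted agents with PI3K inhibitors. Dosing: clinically relevant, half-log spacing, 10 microM ceiling without known Cmax. Read-out: cell viability.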

[1] = second compound 0.0316 µM, first compound 0.00949 µM
[2] = second compound 0.0316 µM, first compound 0.03 µM
[3] = second compound 0.0316 µM, first compound 0.0949 µM
[4] = second compound 0.0316 µM, first compound 0.3 µM
[5] = second compound 0.0316 µM, first compound 0.949 µM
[6] = second compound 0.0316 µM, first compound 3 µM
[7] = second compound 0.1 µM, first compound 0.00949 µM
[8] = second compound 0.1 µM, first compound 0.03 µM
[9] = second compound 0.1 µM, first compound 0.0949 µM
[10] = second compound 0.1 µM, first compound 0.3 µM
[11] = second compound 0.1 µM, first compound 0.949 µM
[12] = second compound 0.1 µM, first compound 3 µM
[13] = second compound 0.316 µM, first compound 0.00949 µM
[14] = second compound 0.316 µM, first compound 0.03 µM
[15] = second compound 0.316 µM, first compound 0.0949 µM
[16] = second compound 0.316 µM, first compound 0.3 µM
[17] = second compound 0.316 µM, first compound 0.949 µM
[18] = second compound 0.316 µM, first compound 3 µM
[19] = second compound 1 µM, first compound 0.00949 µM
[20] = second compound 1 µM, first compound 0.03 µM
[21] = second compound 1 µM, first compound 0.0949 µM
[22] = second compound 1 µM, first compound 0.3 µM
[23] = second compound 1 µM, first compound 0.949 µM
[24] = second compound 1 µM, first compound 3 µM
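Note: spheroids exposed to agents for seven days before readout.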

CC(C)n1nc(-c2ccc3oc(N)nc3c2)c2c(N)ncnc21 + Cc1nc(NC(=O)N2CCCC2C(N)=O)sc1-c1ccnc(C(C)(C)C(F)(F)F)c1
> 100 nM: IC50 (second compound 0.0316 µM) | IC50 (second compound 0.1 µM)
54.1 nM: IC50 (second compound 3.16 µM)
70.4 nM: IC50 (second compound 1 µM)
21.6 nM: IC50 (second compound 10 µM)
inactive: viability, T/C (second compound 0.0316 µM, first compound 0.000316 µM) 102% | viability, T/C (second compound 0.0316 µM, first compound 0.001 µM) 101% | viability, T/C (second compound 0.0316 µM, first compound 0.00316 µM) 97.8% | viability, T/C (second compound 0.0316 µM, first compound 0.01 µM) 97.8% | viability, T/C (second compound 0.0316 µM, first compound 0.0316 µM) 101% | viability, T/C (second compound 0.0316 µM, first compound 0.1 µM) 64.5% | viability, T/C (second compound 0.1 µM, first compound 0.000316 µM) 108% | viability, T/C (second compound 0.1 µM, first compound 0.001 µM) 111% | viability, T/C (second compound 0.1 µM, first compound 0.00316 µM) 99.3% | viability, T/C (second compound 0.1 µM, first compound 0.01 µM) 101% | viability, T/C (second compound 0.1 µM, first compound 0.0316 µM) 90.2% | viability, T/C (second compound 0.1 µM, first compound 0.1 µM) 58.1% | viability, T/C (second compound 0.316 µM, first compound 0.000316 µM) 106% | viability, T/C (second compound 0.316 µM, first compound 0.001 µM) 93.8% | viability, T/C (second compound 0.316 µM, first compound 0.00316 µM) 96.8% | viability, T/C (second compound 0.316 µM, first compound 0.01 µM) 93.7% | viability, T/C (second compound 0.316 µM, first compound 0.0316 µM) 88.9% | viability, T/C (second compound 0.316 µM, first compound 0.1 µM) 49% | viability, T/C (second compound 1 µM, first compound 0.000316 µM) 94.2% | viability, T/C (second compound 1 µM, first compound 0.001 µM) 89% | viability, T/C (second compound 1 µM, first compound 0.00316 µM) 82.3% | viability, T/C (second compound 1 µM, first compound 0.01 µM) 91.3% | viability, T/C (second compound 1 µM, first compound 0.0316 µM) 72.9% | viability, T/C (second compound 1 µM, first compound 0.1 µM) 39.9% | viability, T/C (second compound 3.16 µM, first compound 0.000316 µM) 83.9% | viability, T/C (second compound 3.16 µM, first compound 0.001 µM) 85.2% | viability, T/C (second compound 3.16 µM, first compound 0.00316 µM) 83.8% | viability, T/C (second compound 3.16 µM, first compound 0.01 µM) 68.9% | viability, T/C (second compound 3.16 µM, first compound 0.0316 µM) 72.3% | viability, T/C (second compound 3.16 µM, first compound 0.1 µM) 29.6% | viability, T/C (second compound 10 µM, first compound 0.000316 µM) 65% | viability, T/C (second compound 10 µM, first compound 0.001 µM) 62.4% | viability, T/C (second compound 10 µM, first compound 0.00316 µM) 64% | viability, T/C (second compound 10 µM, first compound 0.01 µM) 60% | viability, T/C (second compound 10 µM, first compound 0.0316 µM) 45% | viability, T/C (second compound 10 µM, first compound 0.1 µM) 19.2%
99.1 nM: IC50 (second compound 0.316 µM)

Cn1cnc2c(F)c(Nc3ccc(Br)cc3Cl)c(C(=O)NOCCO)cc21 + COc1c(OCCCN2CCOCC2)ccc2c3n(c(=NC(=O)c4cnc(N)nc4)nc12)CCN3
inactive: viability, T/C (second compound 0.00316 µM, first compound 0.00949 µM) 104% | viability, T/C (second compound 0.00316 µM, first compound 0.03 µM) 99.9% | viability, T/C (second compound 0.00316 µM, first compound 0.0949 µM) 92.1% | viability, T/C (second compound 0.00316 µM, first compound 0.3 µM) 86.6% | viability, T/C (second compound 0.00316 µM, first compound 0.949 µM) 75.6% | viability, T/C (second compound 0.00316 µM, first compound 3 µM) 57.5% | viability, T/C (second compound 0.01 µM, first compound 0.00949 µM) 107% | viability, T/C (second compound 0.01 µM, first compound 0.03 µM) 101% | viability, T/C (second compound 0.01 µM, first compound 0.0949 µM) 88.6% | viability, T/C (second compound 0.01 µM, first compound 0.3 µM) 85.6% | viability, T/C (second compound 0.01 µM, first compound 0.949 µM) 69% | viability, T/C (second compound 0.01 µM, first compound 3 µM) 38.7% | viability, T/C [1] 102% | viability, T/C [2] 93% | viability, T/C [3] 81% | viability, T/C [4] 67.2% | viability, T/C [5] 45.3% | viability, T/C [6] 16% | viability, T/C [7] 81.5% | viability, T/C [8] 69.3% | viability, T/C [9] 55.4% | viability, T/C [10] 43.1% | viability, T/C [11] 23.9% | viability, T/C [13] 50.8% | viability, T/C [14] 44.9% | viability, T/C [15] 28.9% | viability, T/C [16] 18% | viability, T/C [19] 21.7% | viability, T/C [20] 17.9%
< 9.49 nM: IC50 (second compound 1 µM)
1950 nM: IC50 (second compound 0.01 µM)
active: viability, T/C [12] 3.88% | viability, T/C [17] 4.2% | viability, T/C [18] 1.79% | viability, T/C [21] 10.1% | viability, T/C [22] 3.9% | viability, T/C [23] 2.04% | viability, T/C [24] 1.34%
156 nM: IC50 (second compound 0.1 µM)
11.4 nM: IC50 (second compound 0.316 µM)
> 3000 nM: IC50 (second compound 0.00316 µM)
718 nM: IC50 (second compound 0.0316 µM)

Cn1cnc2c(F)c(Nc3ccc(Br)cc3Cl)c(C(=O)NOCCO)cc21 + Cc1nc(NC(=O)N2CCCC2C(N)=O)sc1-c1ccnc(C(C)(C)C(F)(F)F)c1
30.9 nM: IC50 (second compound 10 µM)
2120 nM: IC50 (second compound 0.1 µM)
741 nM: IC50 (second compound 1 µM)
active: viability, T/C (second compound 3.16 µM, first compound 3 µM) 6.45% | viability, T/C (second compound 10 µM, first compound 0.949 µM) 4.2% | viability, T/C (second compound 10 µM, first compound 3 µM) 1.47%
204 nM: IC50 (second compound 3.16 µM)
inactive: viability, T/C [1] 96.2% | viability, T/C [2] 95.8% | viability, T/C [3] 82.2% | viability, T/C [4] 78.8% | viability, T/C [5] 75.8% | viability, T/C [6] 48.3% | viability, T/C [7] 107% | viability, T/C [8] 106% | viability, T/C [9] 83.7% | viability, T/C [10] 84.5% | viability, T/C [11] 70.4% | viability, T/C [12] 41% | viability, T/C [13] 103% | viability, T/C [14] 89.5% | viability, T/C [15] 79.2% | viability, T/C [16] 74% | viability, T/C [17] 57.1% | viability, T/C [18] 29.7% | viability, T/C [19] 95.9% | viability, T/C [20] 92.7% | viability, T/C [21] 75.6% | viability, T/C [22] 68% | viability, T/C [23] 44.4% | viability, T/C [24] 27.5% | viability, T/C (second compound 3.16 µM, first compound 0.00949 µM) 82.7% | viability, T/C (second compound 3.16 µM, first compound 0.03 µM) 77.6% | viability, T/C (second compound 3.16 µM, first compound 0.0949 µM) 61.9% | viability, T/C (second compound 3.16 µM, first compound 0.3 µM) 40% | viability, T/C (second compound 3.16 µM, first compound 0.949 µM) 29.3% | viability, T/C (second compound 10 µM, first compound 0.00949 µM) 59% | viability, T/C (second compound 10 µM, first compound 0.03 µM) 48.4% | viability, T/C (second compound 10 µM, first compound 0.0949 µM) 35% | viability, T/C (second compound 10 µM, first compound 0.3 µM) 12.5%
1170 nM: IC50 (second compound 0.316 µM)
> 3000 nM: IC50 (second compound 0.0316 µM)
